Laboratory results as given in patent US8148531B2 (Chroma Therapeutics Ltd., priority 2005, dated 2012).

Assays:
HUT cell line = assay: Cell inhibition assay (SRB cell viability), HUT; assay type: cell-based; details: IC50 range class, 72 h, read-out: Inhibitor Activity vs HUT cell line
Method in brief: (§1)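 Log-phase cells seeded at 1000 cells/well, grown 24 h, then exposed to compounds (20 uM final) for 72 h. Viability read by sulphorhodamine B staining as % inhibition versus DMSO; IC50 from eight-point sigmoidal variable-slope fit.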

HCT 116 cell line = assay: Cell inhibition assay (SRB cell viability), HCT 116; assay type: cell-based; details: Homo sapiens, IC50 range class, 72 h, read-out: Inhibitor Activity vs HCT 116 cell line
Method in brief: as §1

Aurora-B = Aurora-B (Homo sapiens, UniProt Q96GD4); assay: Aurora-B enzyme assay (identical protocol as Aurora-A); assay type: biochemical; details: IC50 range class; read-out: Inhibitor Activity vs Aurora-B
Method in brief: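 Aurora-B was assayed in the same way as Aurora-A: kinase and γ-33P-ATP were incubated for 1 h at 37 °C in myelin basic protein-coated scintillation plates. After washing, bound radioactivity was counted. IC50 values came from a variable-slope sigmoidal fit of % activity against log compound concentration.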

U937 cell line = assay: Cell inhibition assay (SRB cell viability), U937; assay type: cell-based; details: Homo sapiens, U-937, IC50 range class, 72 h, read-out: Inhibitor Activity vs U937 cell line
Method in brief: as §1

Aurora-A = target: T1, Aurora-A (Homo sapiens, UniProt O14965); assay: Aurora-A enzyme assay (MBP-coated Flashplate, γ-33P-ATP); assay type: biochemical; details: IC50 range class; read-out: Inhibitor Activity vs Aurora-A
T1 sequence (O14965 1-403): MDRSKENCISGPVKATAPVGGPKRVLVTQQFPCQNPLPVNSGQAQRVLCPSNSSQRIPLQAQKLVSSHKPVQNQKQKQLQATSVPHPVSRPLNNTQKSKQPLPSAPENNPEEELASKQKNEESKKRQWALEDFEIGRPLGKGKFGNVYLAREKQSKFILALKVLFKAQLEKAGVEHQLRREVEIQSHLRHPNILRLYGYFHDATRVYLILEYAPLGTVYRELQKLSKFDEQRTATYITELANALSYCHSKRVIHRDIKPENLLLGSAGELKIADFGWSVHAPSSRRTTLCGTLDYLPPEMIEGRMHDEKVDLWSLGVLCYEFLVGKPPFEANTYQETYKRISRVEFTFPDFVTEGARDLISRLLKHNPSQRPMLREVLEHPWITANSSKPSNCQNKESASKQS
Method: The ability of compounds to inhibit Aurora-A activity was measured using a simple microplate assay for Aurora-A activity, also suitable for high-throughput screening. In brief, γ-^33P-ATP and Aurora-A were incubated in a myelin basic protein (MBP)-coated Flashplate® to generate a scintillation signal. The plates were formatted to contain the inhibitor, controls, positive control (staurosporin) and blanks. After incubation at 37° C. for 1 hour and a subsequent wash procedure, the plates were read on a TopCount-NXT™.
The 384-well basic Flashplate® and the γ-^33P-ATP were obtained from PerkinElmer Life Sciences, Boston, Mass.
IC50 values were determined by non-linear regression analysis, after fitting the data point results to the equation for sigmoidal dose response with variable slope (% activity against log concentration of compound), using Graphpad Prism software.
Full experimental procedure for this assay can be found within the following reference: Sun, C Journal of Biomolecular Screening 9(5), 2004, 391.

Aurora-B, sequence (Q96GD4 whole entry): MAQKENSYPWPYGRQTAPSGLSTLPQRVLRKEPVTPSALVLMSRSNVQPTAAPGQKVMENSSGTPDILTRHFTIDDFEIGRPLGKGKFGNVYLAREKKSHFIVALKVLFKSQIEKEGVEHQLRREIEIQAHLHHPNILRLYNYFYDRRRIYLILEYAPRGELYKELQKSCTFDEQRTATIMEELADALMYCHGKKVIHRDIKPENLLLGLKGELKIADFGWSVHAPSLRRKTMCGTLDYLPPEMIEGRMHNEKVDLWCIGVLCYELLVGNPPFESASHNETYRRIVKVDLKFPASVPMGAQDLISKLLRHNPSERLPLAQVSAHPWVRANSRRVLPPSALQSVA

Structure (SMILES)	IC50 (HUT cell line) [µM]	IC50 (HCT 116 cell line) [µM]	IC50 (Aurora-B) [µM]	IC50 (U937 cell line) [µM]	IC50 (Aurora-A) [µM]
COc1cc2c(Oc3ccc(NC(=O)c4ccccc4)cc3)ccnc2cc1OCC[C@H](N)C(=O)OC(C)(C)C [Example 50, (S)-2-Amino-4-[4-(4-benzoylamino-phenoxy)-6-methoxy-quinolin-7-yloxy]-butyric acid tert-butyl ester]	< 1	< 1	2 to 5	< 1	2 to 5
COc1cc2c(Oc3ccc(NC(=O)c4cccc(F)c4)cc3)ccnc2cc1OCC[C@H](N)C(=O)OC1CCCC1 [Example 55, (S)-2-Amino-4-{4-[4-(3-fluoro-benzoylamino)-phenoxy]-6-methoxy-quinolin-7-yloxy}-butyric acid cyclopentyl ester]	< 1	< 1	2 to 5	< 1	2 to 5
COc1cc2c(Oc3ccc(NC(=O)Nc4ccc(C(F)(F)F)cc4)cc3)ccnc2cc1OCC[C@H](N)C(=O)OC1CCCC1 [Example 93, (S)-2-Amino-4-(6-methoxy-4-{4-[3-(4-trifluoromethyl-phenyl)-ureido]-phenoxy}-quinolin-7-yloxy)-butyric acid cyclopentyl ester]	< 1	< 1	2 to 5	< 1	< 2
COc1cc2c(Oc3ccc(NC(=O)Nc4ccccc4)cc3)ccnc2cc1OCC[C@H](N)C(=O)OC1CCCC1 [Example 95, (S)-2-Amino-4-{6-methoxy-4-[4-(3-phenyl-ureido)-phenoxy]-quinolin-7-yloxy}-butyric acid cyclopentyl ester]	< 1	< 1	2 to 5	< 1	2 to 5
COc1cc2c(Oc3ccc(NC(=O)c4ccccc4)cc3)ccnc2cc1OCC[C@@H](N)C(=O)OC1CCCC1 [Example 99, (R)-2-Amino-4-[4-(4-benzoylamino-phenoxy)-6-methoxy-quinolin-7-yloxy]-butyric acid cyclopentyl ester]	< 1	< 1	2 to 5	< 1	2 to 5
COc1cc2c(Oc3ccc(NC(=O)Nc4ccccc4)cc3)ccnc2cc1OCC[C@@H](N)C(=O)OC1CCCC1 [Example 101, (R)-2-Amino-4-{6-methoxy-4-[4-(3-phenyl-ureido)-phenoxy]-quinolin-7-yloxy}-butyric acid cyclopentyl ester]	< 1	< 1	< 2	< 1	2 to 5
COc1cc2c(Oc3ccc(NC(=O)c4ccccc4)cc3)ccnc2cc1OCCC[C@H](N)C(=O)OC1CCCC1 [Example 109, (S)-2-Amino-5-[4-(4-benzoylamino-phenoxy)-6-methoxy-quinolin-7-yloxy]-pentanoic acid cyclopentyl ester]	< 1	< 1	2 to 5	< 1	2 to 5
COc1cc2c(Oc3ccc(NC(=O)Nc4ccccc4)cc3)ccnc2cc1OCCC[C@H](N)C(=O)OC1CCCC1 [Example 111, (S)-2-Amino-5-{6-methoxy-4-[4-(3-phenyl-ureido)-phenoxy]-quinolin-7-yloxy}-pentanoic acid cyclopentyl ester]	< 1	< 1	2 to 5	< 1	2 to 5
COc1cc2c(Oc3ccc(NC(=O)c4ccccc4)cc3)ccnc2cc1OCCC[C@@H](N)C(=O)OC1CCCC1 [Example 115, (R)-2-Amino-5-[4-(4-benzoylamino-phenoxy)-6-methoxy-quinolin-7-yloxy]-pentanoic acid cyclopentyl ester]	< 1	< 1	2 to 5	< 1	2 to 5
COc1cc2c(Oc3ccc(NC(=O)Nc4ccc(C(F)(F)F)cc4)cc3)ccnc2cc1OCCC[C@@H](N)C(=O)OC1CCCC1 [Example 119, (R)-2-Amino-5-(6-methoxy-4-{4-[3-(4-trifluoromethyl-phenyl)-ureido]-phenoxy}-quinolin-7-yloxy)-pentanoic acid cyclopentyl ester]	< 1	< 1	< 2	< 1	< 2
COc1cc2c(Oc3ccc(NC(=O)Nc4ccc(C(F)(F)F)cc4)cc3F)ccnc2cc1OCC[C@H](N)C(=O)OC1CCCC1 [Example 125, (S)-2-Amino-4-(4-{2-fluoro-4-[3-(4-trifluoromethyl-phenyl)-ureido]-phenoxy}-6-methoxy-quinolin-7-yloxy)-butyric acid cyclopentyl ester]	< 1	< 1	2 to 5	< 1	2 to 5
